Experimental data taken from US5210089A, “D-rhamnono-1,5-lactone” (Monsanto Company, priority 1992, dated 1993).
Counter-ions that a name gives are not always drawn. Like-named read-outs stand apart in the source and are kept apart here.

Legend:
α-arabinosidase = assay: Human liver glycosidase assay, α-arabinosidase; assay type: biochemical; settings: 1 mM compound
Protocol: (§1) Melting points were recorded on a Kofler hot block. Proton nuclear magnetic resonance (δH) spectra were recorded on Varian Gemini 200 (at 200 MHz), Bruker WH 300 (300 MHz), or Bruker AM 500 (500 MHz) spectrometers. Carbon nuclear magnetic resonance (δC) spectra were recorded on a Varian Gemini 200 (50 MHz) or a Bruker 250 (62.9 MHz) spectrometer. Multiplicities were assigned using DEPT sequence on the Gemini and by off resonance decoupling on the Bruker. Spectra run in D2 O were referenced to methanol as an internal standard. All chemical shifts are quoted on the δ-scale. Infrared spectra were recorded on a Perkin-Elmer 297, or on a Perkin-Elmer 781 spectrophotometer. Mass spectra were recorded on VG Micromass 30F, ZAB lF, Masslab 20-250 or Trio-1 GCMS (DB-5 column) spectrometers using desorption chemical ionization (NH3 DCI), electron impact (EI), chemical ionization (NH3 CI) and fast atom bombardment (FAB) techniques, as stated. […] Concentrations were given in g/100 ml. Hydrogenations were run under an atmosphere of hydrogen gas maintained by inflated balloon. Microanalyses were performed by the microanalysis service of the DysonPerrins laboratory, Oxford UK. […]
(§2) The enzymes included human liver glycosidases and naringinase. The latter enzyme is a readily available endo-L-rhamnosidase described by Romero et al., Anal. Biochem. 149, 566 (1985).

[1] = tested on: glycoprotein processing mannosidase I; settings: literature; cited from earlier work
mannosidases = settings: literature; cited from earlier work
Lysosomal α-mannosidase = molecular target: T1, Lysosomal α-mannosidase (Homo sapiens, UniProt O00754); assay: Human liver glycosidase assay, lysosomal α-mannosidase; assay type: biochemical; design: human liver extracts; from tissue; host or cells: human liver extracts; settings: for inhibition at 1000 µM: 1 mM compound, 4-methylumbelliferyl-glycoside substrate
T1 sequence (O00754 50-1011): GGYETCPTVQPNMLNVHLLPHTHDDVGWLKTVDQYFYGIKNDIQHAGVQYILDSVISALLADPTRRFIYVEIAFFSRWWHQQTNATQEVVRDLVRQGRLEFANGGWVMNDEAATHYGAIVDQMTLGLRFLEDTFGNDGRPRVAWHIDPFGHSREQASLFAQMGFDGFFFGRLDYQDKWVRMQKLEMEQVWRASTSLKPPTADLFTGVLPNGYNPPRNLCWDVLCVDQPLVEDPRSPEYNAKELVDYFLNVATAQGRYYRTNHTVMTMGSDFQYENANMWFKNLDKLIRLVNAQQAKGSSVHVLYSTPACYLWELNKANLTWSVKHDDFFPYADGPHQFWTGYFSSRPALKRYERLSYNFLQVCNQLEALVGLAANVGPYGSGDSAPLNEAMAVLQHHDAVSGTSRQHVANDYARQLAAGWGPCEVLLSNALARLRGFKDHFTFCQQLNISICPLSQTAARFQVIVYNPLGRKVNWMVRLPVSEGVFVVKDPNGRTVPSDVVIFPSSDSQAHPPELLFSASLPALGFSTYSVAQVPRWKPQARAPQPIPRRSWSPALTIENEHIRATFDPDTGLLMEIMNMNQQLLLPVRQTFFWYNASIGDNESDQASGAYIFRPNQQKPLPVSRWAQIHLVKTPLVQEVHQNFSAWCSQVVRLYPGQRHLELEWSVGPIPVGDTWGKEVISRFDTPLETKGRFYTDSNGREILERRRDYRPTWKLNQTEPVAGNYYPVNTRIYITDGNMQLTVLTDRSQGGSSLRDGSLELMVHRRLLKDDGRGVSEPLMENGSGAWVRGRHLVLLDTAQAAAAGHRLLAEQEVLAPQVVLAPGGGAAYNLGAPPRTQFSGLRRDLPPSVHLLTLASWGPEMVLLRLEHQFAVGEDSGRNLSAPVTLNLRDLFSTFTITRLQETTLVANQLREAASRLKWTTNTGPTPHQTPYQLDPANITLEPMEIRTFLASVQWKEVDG
Protocol: (§3) Melting points were recorded on a Kofler hot block. Proton nuclear magnetic resonance (δH) spectra were recorded on Varian Gemini 200 (at 200 MHz), Bruker WH 300 (300 MHz), or Bruker AM 500 (500 MHz) spectrometers. Carbon nuclear magnetic resonance (δC) spectra were recorded on a Varian Gemini 200 (50 MHz) or a Bruker 250 (62.9 MHz) spectrometer. Multiplicities were assigned using DEPT sequence on the Gemini and by off resonance decoupling on the Bruker. Spectra run in D2 O were referenced to methanol as an internal standard. All chemical shifts are quoted on the δ-scale. Infrared spectra were recorded on a Perkin-Elmer 297, or on a Perkin-Elmer 781 spectrophotometer. Mass spectra were recorded on VG Micromass 30F, ZAB lF, Masslab 20-250 or Trio-1 GCMS (DB-5 column) spectrometers using desorption chemical ionization (NH3 DCI), electron impact (EI), chemical ionization (NH3 CI) and fast atom bombardment (FAB) techniques, as stated. […] Concentrations were given in g/100 ml. Hydrogenations were run under an atmosphere of hydrogen gas maintained by inflated balloon. Microanalyses were performed by the microanalysis service of the DysonPerrins laboratory, Oxford UK. Thin layer chromatography (t.l.c.) was carried out on aluminum sheets coated with 60F254 silica. Plates were developed using either 5% v/v concentrated sulphuric acid in methanol, 0.2% w/v cerium (IV) sulphate and 5% ammonium molybdate in 2M sulphuric acid and 0.5% ninhydrin in methanol. Flash chromatography was carried out using Sorbsil C60 40/60 silica. Ion-exchange chromatography was performed using Dowex 50W-X8 (H) and Sigma CG 400 (Cl) resins. The resins were washed with 2M hydrochloric acid and 2M sodium hydroxide solution, respectively, and subsequently with distilled water, prior to use. Solvents and commercially available reagents were dried and purified before use according to standard procedures; dichloromethane was refluxed over and distilled from calcium hydride, N,N-dimethylformamide was distilled under reduced pressure from calcium hydride, methanol was distilled from magnesium methoxide, pyridine was distilled from, and stored over, potassium hydroxide and tetrahydrofuran was distilled from a purple solution of sodium benzophenone ketyl immediately before use. Hexane was distilled at 68° C. before use to remove involatile fractions. 2,3-O-Isopropylidene-L-gulono-1,4-lactone (9) [H. Ogura et al., J. Oro. Chem. 37, 72 (1972); G. W. J. Fleet Tetrahedron 45, 319 (1989)]and 2,3-O-isopropylidene-D-gulono-1,4-lactone (15) [L. M. Lerner et al., J. Org. Chem. 33, 1780 (1968)]were prepared from D- and L-Chem. gulonolactones [purchased from the Sigma Chemical Company] as reported previously. See, e.g., Fleet, U.S. Pat. No. 4,861,892. Human liver glycosidases were assayed in the absence and presence [1 mM] of each of the compounds using the appropriate buffered 4-methylumbellifeeryl-glycosides as substrates, as described previously. [B. Winchest et al., Biochem. J. 265, 277 (1990)]. Naringinase was assayed using pnitrophenyl α-L-rhamnoside (1.75 mM) as substrates, according to Romero [C. Romero et al., Anal. Biochem. 149, 566 (1985)].
as §2

Lysosomal α-fucosidase = molecular target: T2, Lysosomal α-fucosidase (Homo sapiens, UniProt P04066); assay: Human liver glycosidase assay, lysosomal α-fucosidase; assay type: biochemical; settings: read-out: Inhibition (%) at 1 mM, lysosomal α-fucosidase
T2 construct: human liver extracts; from tissue; host or cells: human liver extracts
T2 sequence (P04066 32-466): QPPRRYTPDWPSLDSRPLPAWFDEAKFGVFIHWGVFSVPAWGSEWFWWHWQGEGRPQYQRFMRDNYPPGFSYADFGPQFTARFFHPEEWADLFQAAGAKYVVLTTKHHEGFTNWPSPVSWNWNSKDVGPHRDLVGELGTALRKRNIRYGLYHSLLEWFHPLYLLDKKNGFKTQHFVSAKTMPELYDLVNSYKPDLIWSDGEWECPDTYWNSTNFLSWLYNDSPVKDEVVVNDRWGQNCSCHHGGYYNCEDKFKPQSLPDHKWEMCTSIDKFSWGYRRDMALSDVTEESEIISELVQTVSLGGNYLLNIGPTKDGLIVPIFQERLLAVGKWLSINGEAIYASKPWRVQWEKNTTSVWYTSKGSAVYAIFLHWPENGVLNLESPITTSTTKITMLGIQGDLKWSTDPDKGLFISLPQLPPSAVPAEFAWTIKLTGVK
Protocol: as §3, §2

bovine α-L-fucosidase = molecular target: T3, bovine α-L-fucosidase (Bos taurus, UniProt Q2KIM0); settings: literature; cited from earlier work
T3 sequence (Q2KIM0 23-468): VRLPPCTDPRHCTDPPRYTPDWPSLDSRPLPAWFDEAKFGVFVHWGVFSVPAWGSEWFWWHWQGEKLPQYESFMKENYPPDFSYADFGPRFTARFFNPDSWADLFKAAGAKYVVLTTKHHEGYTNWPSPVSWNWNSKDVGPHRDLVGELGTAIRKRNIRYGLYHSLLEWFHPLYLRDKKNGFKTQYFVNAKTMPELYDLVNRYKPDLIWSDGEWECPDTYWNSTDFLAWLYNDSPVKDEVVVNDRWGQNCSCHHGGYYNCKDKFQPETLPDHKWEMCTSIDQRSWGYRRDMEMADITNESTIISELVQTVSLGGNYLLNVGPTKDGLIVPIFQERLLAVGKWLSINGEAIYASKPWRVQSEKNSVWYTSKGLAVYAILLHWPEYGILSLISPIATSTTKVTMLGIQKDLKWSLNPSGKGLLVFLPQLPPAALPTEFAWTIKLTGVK

[2] = tested on: N-acetyl-β-D-hexosaminidase; assay: Human liver glycosidase assay, N-acetyl-β-D-hexosaminidase; assay type: biochemical; settings: 1 mM compound
Protocol: as §1, §2

human liver mannosidases = settings: literature; cited from earlier work
β-mannosidase = molecular target: T4, β-mannosidase (Homo sapiens, UniProt O00462); settings: literature; cited from earlier work
T4 sequence (O00462 18-879): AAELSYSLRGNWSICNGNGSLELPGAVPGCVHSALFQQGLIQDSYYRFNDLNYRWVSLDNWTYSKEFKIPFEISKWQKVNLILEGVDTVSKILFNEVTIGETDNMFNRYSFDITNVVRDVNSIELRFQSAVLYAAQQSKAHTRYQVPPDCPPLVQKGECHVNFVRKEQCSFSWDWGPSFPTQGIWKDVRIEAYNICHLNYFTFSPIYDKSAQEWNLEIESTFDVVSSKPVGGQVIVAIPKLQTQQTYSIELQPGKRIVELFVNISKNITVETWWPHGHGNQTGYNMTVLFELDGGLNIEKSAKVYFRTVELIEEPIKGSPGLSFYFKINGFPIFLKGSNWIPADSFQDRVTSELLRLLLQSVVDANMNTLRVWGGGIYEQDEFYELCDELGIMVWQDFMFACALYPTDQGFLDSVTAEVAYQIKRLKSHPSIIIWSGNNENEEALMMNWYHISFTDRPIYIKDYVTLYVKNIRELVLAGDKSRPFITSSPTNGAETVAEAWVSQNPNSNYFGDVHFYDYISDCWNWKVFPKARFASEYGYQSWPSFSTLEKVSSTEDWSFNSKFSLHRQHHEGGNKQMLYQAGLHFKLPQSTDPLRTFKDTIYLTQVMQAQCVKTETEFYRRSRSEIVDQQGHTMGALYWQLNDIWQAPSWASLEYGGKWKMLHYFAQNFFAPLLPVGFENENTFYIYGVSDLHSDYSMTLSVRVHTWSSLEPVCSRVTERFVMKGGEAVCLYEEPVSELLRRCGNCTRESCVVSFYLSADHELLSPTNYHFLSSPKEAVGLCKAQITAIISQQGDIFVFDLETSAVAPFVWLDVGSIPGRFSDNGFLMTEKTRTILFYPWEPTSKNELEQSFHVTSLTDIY

[3] = tested on: α-rhamnosidase (naringinase); assay: Naringinase assay with p-nitrophenyl α-L-rhamnoside; assay type: biochemical; settings: 1 mM compound; p-nitrophenyl α-L-rhamnoside 1.75 mM
Protocol: as §3, §2

[4] = human liver, read-out: Ki, lysosomal α-mannosidase

SMILES	Inhibition (%) at 1 mM, α-arabinosidase (α-arabinosidase) [%]	Inhibition of glycoprotein processing mannosidase (in words) [1]	inhibition at 1000 µM (Lysosomal α-mannosidase; human liver) [%]	Ki (Lysosomal α-mannosidase; [4]) [µM]	inhibition at 1000 µM (Lysosomal α-fucosidase; 1 mM compound, human liver) [%]	Inhibition (%) at 1 mM, α-rhamnosidase (naringinase) [3] [%]	other results
OC[C@@H](O)[C@H]1NC[C@@H](O)[C@H]1O [1,4-dideoxy-1,4-iminomannitol (3), 1,4-dideoxy-1,4-iminomannitol]	66	strong	89	13	24	–	Inhibition of many mannosidases (in words) (mannosidases): strong
OC[C@H]1NC[C@@H](O)[C@@H](O)[C@@H]1O [DMJ (1), deoxymannojirimycin]	–	potent inhibitor	–	–	–	–	Inhibition of bovine α-L-fucosidase (in words) (bovine α-L-fucosidase): potent inhibitor; Inhibition (%) at 1 mM, N-acetyl-β-D-hexosaminidase [2]: 54%; Ki (Lysosomal α-mannosidase): 750 µM; inhibition at 1000 µM (Lysosomal α-fucosidase): 92%
C[C@@H](O)[C@H]1NC[C@@H](O)[C@H]1O [1,4-dideoxy-1,4-imino-6-deoxy-mannitol]	91	–	100	1.3	21	–	Inhibition of human liver mannosidases (in words) (human liver mannosidases): excellent inhibitor
O[C@H]1[C@H]2[C@H](O)CCCN2C[C@H]1O [swainsonine]	–	–	–	–	–	–	Inhibition of β-mannosidase (in words) (β-mannosidase): fail to inhibit
C[C@@H]1NC[C@H](O)[C@H](O)[C@H]1O [L-Rhamnojirimycin (7), 1,5-Imino-1,5,6-trieoxy-L-mannitoI hydrochIoride]	–	–	19	–	–	0	–
C[C@H]1NC[C@@H](O)[C@@H](O)[C@@H]1O [D-Rhamnojirimycin (5), 1,5-amino-1,5,6-trideoxy-D-mannitol hydrochloride]	–	–	55	–	–	10	IC50 (Lysosomal α-mannosidase; human liver, read-out: I50, lysosomal α-mannosidase): 1000 µM
